The record followed here is US4572909A, “2-(Secondary aminoalkoxymethyl) dihydropyridine derivatives as anti-ischaemic and antihypertensive agents” (Pfizer Inc., priority 1982, dated 1986).

In the assay the test system is rat aorta. Put plainly: reduction of calcium-induced contraction (response to calcium chloride) of spirally cut strips of rat aorta in vitro. Type of assay: cell-based. Here is the method: The ability of the compounds to inhibit the movement of calcium into the cell is shown by their effectiveness in reducing the response of isolated […] to an increase in calcium ion concentration in vitro. The test is performed by mounting spirally cut strips of rat aorta with one end fixed and the other attached to a force transducer. The tissue is immersed in a bath of physiological saline solution containing potassium ions at a concentration of 45 millimolar and no calcium. Calcium chloride is added to the bath with a pipette to give a final calcium ion concentration of 2 millimolar. The change in tension caused by the resulting contraction of the tissue is noted. The bath is drained and replaced with fresh saline solution and, after 45 minutes, the test is repeated with the particular compound under test present in the saline solution. The concentration of compound required to reduce the response by 50% is recorded.

The mark [1] stands for this setting: 0.75 h; isolated rat aorta strips; 45 millimolar potassium; 2 millimolar calcium; retest after 45 minutes with compound; read-out: molar concentration of the compounds required to reduce the response by 50% (IC50).
[2] abbreviates: ranking among the tested Examples.
[3] abbreviates: read-out: molar concentration of the compounds required to reduce the response by 50% (IC50); isolated rat aorta strips; 45 millimolar potassium; 2 millimolar calcium; retest after 45 minutes with compound.
Where [4] appears, read: isolated rat aorta strips; 45 millimolar potassium; 2 millimolar calcium; retest after 45 minutes with compound; read-out: molar concentration of the compounds required to reduce the response by 50% (IC50).

Counter-ions that a name gives are not always drawn. Like-named read-outs stand apart in the source and are kept apart here.

With `CCOC(=O)C1=C(COCCNC)NC(C)=C(C(=O)OC)C1c1ccccc1Cl.O=C(O)C(=O)O` (stereo not drawn) [Example 1, 4-(2-chlorophenyl)-2-[2-(methylamino)ethoxymethyl]-3-ethoxycarbonyl-5-methoxycarbonyl-6-methyl-1,4-dihydropyridine, oxalate salt], under setting [1], the IC50 turned out to be 3.2 nM. The “activity ranking by IC50 (the smaller the concentration the more active the compound)” value (from here on “activity ranking by IC50”) under setting [2] is listed as “most active compounds”. Regarding `CCOC(=O)C1=C(COCCNC)NC(C)=C(C(=O)OC)C1c1ccccc1` (stereo not drawn) [Example 2], the IC50 under setting [1] is 32 nM.

In the case of `CCOC(=O)C1=C(COCCNC)NC(C)=C(C(=O)OC)C1c1ccccc1F` (stereo not drawn) [Example 3], the IC50 under setting [1] turned out to be 20 nM. For the compound `CCOC(=O)C1=C(COCCNC)NC(C)=C(C(=O)OC)C1c1ccccc1OC` (stereo not drawn) [Example 4], the IC50 under setting [1] was found to be 63 nM. As for `CCOC(=O)C1=C(COCCNC)NC(C)=C(C(=O)OC)C1c1cccc(Cl)c1` (stereo not drawn) [Example 5], the IC50 under setting [1] was found to be 40 nM. On to `CCOC(=O)C1=C(COCCNC)NC(C)=C(C(=O)OC)C1c1cccc(O)c1Cl` (stereo not drawn) [Example 6], for which, under setting [1], the IC50 turned out to be 200 nM. Same read-out and setting: the figure for `CCOC(=O)C1=C(COCCNC)NC(C)=C(C(=O)OC)C1c1c(F)cccc1Cl` (stereo not drawn) [Example 7] is 13 nM; for `CCOC(=O)C1=C(COCCNCc2ccccc2)NC(C)=C(C(=O)OC)C1c1ccccc1Cl` (stereo not drawn) [Example 8] it is 50 nM. Turning to `CCOC(=O)C1=C(COCCN)NC(C)=C(C(=O)OC)C1c1ccccc1Cl` (stereo not drawn) [Example 9], the IC50 under setting [1] turned out to be 3.2 nM. Moreover, the “activity ranking by IC50” value under setting [2] is “most active compounds”. In the case of `CCOC(=O)C1=C(COCCNCCOC)NC(C)=C(C(=O)OC)C1c1ccccc1Cl` (stereo not drawn) [Example 10], under setting [1], the IC50 is 25 nM. With `CCOC(=O)C1=C(COCCN)NC(C)=C(C(=O)OC)C1c1ccccc1Cl.O=C(O)/C=C\C(=O)O` (stereo not drawn) [Example 11, 2-[(2-aminoethoxy)methyl]-4-(2-chlorophenyl)-3-ethoxycarbonyl-5-methoxycarbonyl-6-methyl-1,4-dihydropyridine maleate], the “activity ranking by IC50” value under setting [2] is reported as “most active compounds”. The IC50 under setting [3] was 3.2 nM.

In the case of `CCOC(=O)C1=C(COCCN)NC(C)=C(C(=O)OC)C1c1ccccc1Cl` (stereo not drawn) [Example 12, 2-[2-aminoethoxy)methyl]-4-(2-chlorophenyl)-3-ethoxycarbonyl-5-methoxycarbonyl-6-methyl-1,4-dihydropyridine maleate], under setting [4], the IC50 was determined as 3.2 nM. Besides, the “activity ranking by IC50” value under setting [2] is given as “most active compounds”.

Turning to `CCOC(=O)C1=C(COCCN)NC(C)=C(C(=O)OC)C1c1cccc(Cl)c1Cl` (stereo not drawn) [Example 13], the IC50 under setting [1] came out at 6.3 nM. Take `CCOC(=O)C1=C(COCCN)NC(C)=C(C(=O)OC)C1c1ccccc1` (stereo not drawn) [Example 14]: the IC50 under setting [1] amounted to 160 nM. Turning to `CCOC(=O)C1=C(COCCN)NC(C)=C(C(=O)OC)C1c1ccccc1F` (stereo not drawn) [Example 15], the IC50 under setting [1] was determined as 18 nM. The same measure, in the same setting: in the case of `CCOC(=O)C1=C(COCCNCC(N)=O)NC(C)=C(C(=O)OC)C1c1ccccc1Cl` (stereo not drawn) [Example 19, 2-(2-{[4-(2-Chlorophenyl)-3-ethoxycarbonyl-5-methoxycarbonyl-6-methyl-1,4-dihydropyrid-2-yl]methoxy}ethylamino)acetamide] it was 4 nM. Take `CCOC(=O)C1=C(COCCNCC(=O)NC)NC(C)=C(C(=O)OC)C1c1ccccc1Cl` (stereo not drawn) [Example 20]: under setting [1], the IC50 worked out at 22 nM.

Consider `CCOC(=O)C1=C(COCCN)NC(C)=C(C(=O)OC)C1c1ccccc1Cl.O=C(O)/C=C\C(=O)O` (stereo not drawn) [Example 22, 2-[(2-aminoethoxy)methyl]-4-(2-chlorophenyl)-3-ethoxycarbonyl-5-methoxycarbonyl-6-methyl-1,4-dihydropyridine maleate], for which the “activity ranking by IC50” value under setting [2] is given as “most active compounds”. Besides, the IC50 under setting [3] amounted to 3.2 nM. Regarding `CCOC(=O)C1=C(COCCNC)NC(C)=C(C(=O)OC)C1c1ccccc1Cl.O=C(O)/C=C\C(=O)O` (stereo not drawn) [Example 23, 4-(2-Chlorophenyl)-2-[2-(N-methylamino)ethoxymethyl]-3-ethoxycarbonyl-5-methoxycarbonyl-6-methyl-1,4-dihydropyridine maleate], the IC50 under setting [4] turned out to be 3.2 nM. Also, the “activity ranking by IC50” value under setting [2] is reported as “most active compounds”.

With `CCOC(=O)C1=C(COCCNC)NC(C)=C(C(=O)OC)C1c1ccccc1Cl.O=C(O)/C=C\C(=O)O` (stereo not drawn) [Example 24, 4-(2-chlorophenyl)-2-[2-(N-methylamino)ethoxymethyl]-3-ethoxycarbonyl-5-methoxycarbonyl-6-methyl-1,4-dihydropyridine maleate], under setting [4], the IC50 worked out at 3.2 nM. Under setting [2], the “activity ranking by IC50” value is “most active compounds”.
